The experiment has as its target T1, (His)6-OsACBP5; rOsACBP5 (Oryza sativa, UniProt Q10P83).
T1 construct: gene ACBP5; N-terminal (His)6-tag, plasmid pOS543 (from pRSETA), E. coli BL21(DE3) Star pLysS, soluble fraction, HisTrap
T1 sequence (Q10P83 32-569): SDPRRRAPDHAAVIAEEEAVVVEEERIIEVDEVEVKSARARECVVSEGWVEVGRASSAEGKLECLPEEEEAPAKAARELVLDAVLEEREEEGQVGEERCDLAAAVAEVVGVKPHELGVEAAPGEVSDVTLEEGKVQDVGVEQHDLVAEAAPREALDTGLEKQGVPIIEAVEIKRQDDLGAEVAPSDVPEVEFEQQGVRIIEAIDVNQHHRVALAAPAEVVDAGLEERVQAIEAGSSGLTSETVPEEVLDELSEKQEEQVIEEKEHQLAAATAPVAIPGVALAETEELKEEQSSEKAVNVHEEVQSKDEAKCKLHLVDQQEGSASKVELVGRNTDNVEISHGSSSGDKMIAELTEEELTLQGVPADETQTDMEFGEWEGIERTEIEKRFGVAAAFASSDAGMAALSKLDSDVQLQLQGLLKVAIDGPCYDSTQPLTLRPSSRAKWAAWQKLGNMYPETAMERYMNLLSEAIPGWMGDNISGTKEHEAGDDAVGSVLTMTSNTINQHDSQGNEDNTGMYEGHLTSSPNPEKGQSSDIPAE
Description: isothermal titration calorimetry. Type of experiment: binding. (In ITC the heat of successive injections is recorded.)

`CC/C=C\C/C=C\C/C=C\CCCCCCCC(=O)SCCNC(=O)CCNC(=O)[C@H](O)C(C)(C)COP(=O)(O)OP(=O)(O)OC[C@H]1O[C@@H](n2cnc3c(N)ncnc32)[C@H](O)[C@@H]1OP(=O)(O)O` [18:3-acyl-CoA ester]: binding was characterised by a dissociation constant (Kd) of 59.5 nM.

These data come from PMC7483469, “The overexpression of OsACBP5 protects transgenic rice against necrotrophic, hemibiotrophic and biotrophic pathogens” (Scientific Reports, 2020).
